From ChEMBL document CHEMBL1156506, “Changes to the HIV long terminal repeat and to HIV integrase differentially impact HIV integrase assembly, activity, and the binding of strand transfer inhibitors” (J Biol Chem, 2007)

Tests used:
[1] = tested on: Human immunodeficiency virus type 1 integrase (Human immunodeficiency virus 1), Q7ZJM1 [N155H]; experiment: Inhibition of HIV recombinant integrase N155H mutant assessed as specific strand transfer activity using U5 ApTCA LTR by scintillation proximity assay relative to wild type LTR; parameters: scale not given: the % may be the effect or the level left; conditions: tested as the 3H-labelled form
[2] = tested on: Human immunodeficiency virus; experiment: Inhibition of HIV wild type integrase assessed as strand transfer activity using U5 GGCA LTR by scintillation proximity assay relative to wild type LTR; parameters: scale not given: the % may be the effect or the level left; conditions: tested as the 3H-labelled form
[3] = tested on: Human immunodeficiency virus; experiment: Binding affinity to HIV wild type integrase using U5 TTCA LTR relative to wild type LTR; conditions: tested as the 3H-labelled form
[4] = tested on: Human immunodeficiency virus; experiment: Inhibition of HIV wild type integrase assessed as strand transfer activity using U5 GInCA LTR by scintillation proximity assay relative to wild type LTR; parameters: scale not given: the % may be the effect or the level left; conditions: tested as the 3H-labelled form
[5] = tested on: Human immunodeficiency virus type 1 integrase (Human immunodeficiency virus 1), Q7ZJM1 [Q148R]; experiment: Inhibition of U5 TTCA LTR HIV recombinant integrase Q148R mutant assessed as specific strand transfer activity using by scintillation proximity assay relative to wild type LTR; parameters: scale not given: the % may be the effect or the level left; conditions: tested as the 3H-labelled form
[6] = tested on: Human immunodeficiency virus type 1 integrase (Human immunodeficiency virus 1), Q7ZJM1 [Q148R]; experiment: Inhibition of HIV recombinant integrase Q148R mutant assessed as strand transfer activity using U5 INTCA LTR by scintillation proximity assay relative to wild type LTR; parameters: scale not given: the % may be the effect or the level left; conditions: tested as the 3H-labelled form
[7] = tested on: Human immunodeficiency virus; experiment: Binding affinity to HIV wild type integrase U5 CTCA LTR relative to wild type LTR; conditions: tested as the 3H-labelled form
[8] = tested on: Human immunodeficiency virus; experiment: Inhibition of HIV wild type integrase assessed as specific strand transfer activity using U5 GddA LTR by scintillation proximity assay relative to wild type LTR; parameters: scale not given: the % may be the effect or the level left; conditions: tested as the 3H-labelled form
[9] = tested on: Human immunodeficiency virus; experiment: Inhibition of HIV wild type integrase assessed as specific strand transfer activity using U5 GdC LTR by scintillation proximity assay relative to wild type LTR; parameters: scale not given: the % may be the effect or the level left; conditions: tested as the 3H-labelled form
[10] = tested on: Human immunodeficiency virus; experiment: Inhibition of HIV wild type integrase assessed as specific strand transfer activity using U5 GTAA LTR by scintillation proximity assay relative to wild type LTR; parameters: scale not given: the % may be the effect or the level left; conditions: tested as the 3H-labelled form
[11] = tested on: Human immunodeficiency virus; experiment: Inhibition of HIV wild type integrase assessed as strand transfer activity using U5 INTCA LTR by scintillation proximity assay relative to wild type LTR; parameters: scale not given: the % may be the effect or the level left; conditions: tested as the 3H-labelled form
[12] = tested on: Human immunodeficiency virus type 1 integrase (Human immunodeficiency virus 1), Q7ZJM1 [N155H]; experiment: Inhibition of HIV recombinant integrase N155H mutant assessed as strand transfer activity using U5 GTC LTR by scintillation proximity assay relative to wild type LTR; parameters: scale not given: the % may be the effect or the level left; conditions: tested as the 3H-labelled form
[13] = tested on: Human immunodeficiency virus; experiment: Binding affinity to HIV wild type integrase using U5 GInCA LTR relative to wild type LTR; conditions: tested as the 3H-labelled form
[14] = tested on: Human immunodeficiency virus type 1 integrase (Human immunodeficiency virus 1), Q7ZJM1 [Q148R]; experiment: Binding affinity to HIV recombinant integrase Q148R mutant using U5 GTCA LTR relative to wild type LTR; conditions: tested as the 3H-labelled form
[15] = tested on: Human immunodeficiency virus type 1 integrase (Human immunodeficiency virus 1), Q7ZJM1 [N155H]; experiment: Inhibition of HIV recombinant integrase N155H mutant assessed as strand transfer activity using U5 GTdA LTR by scintillation proximity assay relative to wild type LTR; parameters: scale not given: the % may be the effect or the level left; conditions: tested as the 3H-labelled form
[16] = tested on: Human immunodeficiency virus; experiment: Binding affinity to HIV wild type integrase using U5 GTCA/CddC LTR relative to wild type LTR; conditions: tested as the 3H-labelled form
[17] = tested on: Human immunodeficiency virus; experiment: Binding affinity to HIV wild type integrase using U5 GTAG LTR relative to wild type LTR; conditions: tested as the 3H-labelled form
[18] = tested on: Human immunodeficiency virus type 1 integrase (Human immunodeficiency virus 1), Q7ZJM1 [Q148R]; experiment: Inhibition of HIV recombinant integrase Q148R mutant assessed as strand transfer activity using U5 GTCA LTR by scintillation proximity assay relative to wild type LTR; parameters: scale not given: the % may be the effect or the level left; conditions: tested as the 3H-labelled form
[19] = Inhibition of HIV wild type integrase DNA complex; parameters: species or system Human immunodeficiency virus
[20] = tested on: Human immunodeficiency virus; experiment: Inhibition of HIV wild type integrase assessed as specific strand transfer activity using U5 GTCA LTR by scintillation proximity assay relative to wild type LTR; parameters: scale not given: the % may be the effect or the level left; conditions: tested as the 3H-labelled form
[21] = tested on: Human immunodeficiency virus; experiment: Binding affinity to HIV wild type integrase using U5 GTGC LTR relative to wild type LTR; conditions: tested as the 3H-labelled form
[22] = Inhibition of HIV wild type integrase strand transfer activity; parameters: species or system Human immunodeficiency virus
[23] = tested on: Human immunodeficiency virus; experiment: Binding affinity to HIV wild type integrase using U5 ApTCA LTR relative to wild type LTR; conditions: tested as the 3H-labelled form
[24] = tested on: Human immunodeficiency virus; experiment: Inhibition of HIV wild type integrase assessed as specific strand transfer activity using U5 GTGA LTR by scintillation proximity assay relative to wild type LTR; parameters: scale not given: the % may be the effect or the level left; conditions: tested as the 3H-labelled form
[25] = tested on: Human immunodeficiency virus; experiment: Inhibition of HIV wild type integrase assessed as strand transfer activity using U5 GTAT LTR by scintillation proximity assay relative to wild type LTR; parameters: scale not given: the % may be the effect or the level left; conditions: tested as the 3H-labelled form
[26] = tested on: Human immunodeficiency virus; experiment: Inhibition of HIV wild type integrase assessed as specific strand transfer activity using U5 GACA LTR by scintillation proximity assay relative to wild type LTR; parameters: scale not given: the % may be the effect or the level left; conditions: tested as the 3H-labelled form
[27] = tested on: Human immunodeficiency virus type 1 integrase (Human immunodeficiency virus 1), Q7ZJM1 [N155H]; experiment: Binding affinity to HIV recombinant integrase N155H mutant using U5 INTCA LTR relative to wild type LTR; conditions: tested as the 3H-labelled form
[28] = tested on: Human immunodeficiency virus; experiment: Inhibition of HIV wild type integrase assessed as strand transfer activity using U5 GTAC LTR by scintillation proximity assay relative to wild type LTR; parameters: scale not given: the % may be the effect or the level left; conditions: tested as the 3H-labelled form
[29] = tested on: Human immunodeficiency virus type 1 integrase (Human immunodeficiency virus 1), Q7ZJM1 [Q148R]; experiment: Inhibition of U5 GTCA LTR HIV recombinant integrase Q148R mutant assessed as specific strand transfer activity using by scintillation proximity assay relative to wild type LTR; parameters: scale not given: the % may be the effect or the level left; conditions: tested as the 3H-labelled form
[30] = tested on: Human immunodeficiency virus type 1 integrase (Human immunodeficiency virus 1), Q7ZJM1 [N155H]; experiment: Binding affinity to HIV recombinant integrase N155H mutant using U5 GTCA LTR relative to wild type LTR; conditions: tested as the 3H-labelled form
[31] = tested on: Human immunodeficiency virus type 1 integrase (Human immunodeficiency virus 1), Q7ZJM1 [N155H]; experiment: Inhibition of HIV recombinant integrase N155H mutant assessed as strand transfer activity using U5 TTCA LTR by scintillation proximity assay relative to wild type LTR; parameters: scale not given: the % may be the effect or the level left; conditions: tested as the 3H-labelled form
[32] = tested on: Human immunodeficiency virus type 1 integrase (Human immunodeficiency virus 1), Q7ZJM1 [N155H]; experiment: Inhibition of HIV recombinant integrase N155H mutant assessed as specific strand transfer activity using U5 GddA LTR by scintillation proximity assay relative to wild type LTR; parameters: scale not given: the % may be the effect or the level left; conditions: tested as the 3H-labelled form
[33] = tested on: Human immunodeficiency virus; experiment: Binding affinity to HIV wild type integrase using U5 GTCA/C LTR relative to wild type LTR; conditions: tested as the 3H-labelled form
[34] = tested on: Human immunodeficiency virus; experiment: Binding affinity to HIV wild type integrase using U5 dTCA LTR relative to wild type LTR; conditions: tested as the 3H-labelled form
[35] = tested on: Human immunodeficiency virus; experiment: Inhibition of HIV wild type integrase assessed as strand transfer activity using U5 GTGT LTR by scintillation proximity assay relative to wild type LTR; parameters: scale not given: the % may be the effect or the level left; conditions: tested as the 3H-labelled form
[36] = tested on: Human immunodeficiency virus; experiment: Binding affinity to HIV wild type integrase using U5 GdC LTR relative to wild type LTR; conditions: tested as the 3H-labelled form
[37] = tested on: Human immunodeficiency virus; experiment: Binding affinity to HIV wild type integrase using U5 GCCA LTR relative to wild type LTR; conditions: tested as the 3H-labelled form
[38] = tested on: Human immunodeficiency virus type 1 integrase (Human immunodeficiency virus 1), Q7ZJM1 [N155H]; experiment: Inhibition of HIV recombinant integrase N155H mutant assessed as strand transfer activity using U5 GTCA LTR by scintillation proximity assay relative to wild type LTR; parameters: scale not given: the % may be the effect or the level left; conditions: tested as the 3H-labelled form
[39] = tested on: Human immunodeficiency virus type 1 integrase (Human immunodeficiency virus 1), Q7ZJM1 [Q148R]; experiment: Binding affinity to HIV recombinant integrase Q148R mutant using U5 GTC LTR relative to wild type LTR; conditions: tested as the 3H-labelled form
[40] = tested on: Human immunodeficiency virus type 1 integrase (Human immunodeficiency virus 1), Q7ZJM1 [Q148R]; experiment: Inhibition of HIV recombinant integrase Q148R mutant assessed as strand transfer activity using U5 GTC LTR by scintillation proximity assay relative to wild type LTR; parameters: scale not given: the % may be the effect or the level left; conditions: tested as the 3H-labelled form
[41] = tested on: Human immunodeficiency virus type 1 integrase (Human immunodeficiency virus 1), Q7ZJM1 [N155H]; experiment: Binding affinity to HIV recombinant integrase N155H mutant using U5 GdCA LTR relative to wild type LTR; conditions: tested as the 3H-labelled form
[42] = tested on: Human immunodeficiency virus type 1 integrase (Human immunodeficiency virus 1), Q7ZJM1 [Q148R]; experiment: Inhibition of HIV recombinant integrase Q148R mutant assessed as strand transfer activity using U5 GdCA LTR by scintillation proximity assay relative to wild type LTR; parameters: scale not given: the % may be the effect or the level left; conditions: tested as the 3H-labelled form
[43] = tested on: Human immunodeficiency virus type 1 integrase (Human immunodeficiency virus 1), Q7ZJM1 [Q148R]; experiment: Inhibition of HIV recombinant integrase Q148R mutant assessed as strand transfer activity using U5 GTdA LTR by scintillation proximity assay relative to wild type LTR; parameters: scale not given: the % may be the effect or the level left; conditions: tested as the 3H-labelled form
[44] = tested on: Human immunodeficiency virus; experiment: Inhibition of HIV wild type integrase assessed as strand transfer activity using U5 GTTC LTR by scintillation proximity assay relative to wild type LTR; parameters: scale not given: the % may be the effect or the level left; conditions: tested as the 3H-labelled form

SMILES: Cn1c(N2CCCCS2(=O)=O)nc(C(=O)NCc2ccc(F)cc2)c(O)c1=O [BMS-707035]
- Activity [1]: > 40%
- Activity [2]: < 25%
- Activity [3]: 8%
- Activity [4]: 70%
- Activity [5]: > 80%
- Activity [6]: 0.6%
- Activity [7]: < 25%
- Activity [8]: 3%
- Activity [9]: 19%
- Activity [10]: 52%
- Activity [11]: 45%
- Activity [12]: 90%
- Activity [13]: 28%
- Activity [14]: 3%
- Activity [15]: 17%
- Activity [16]: 75%
- Activity [17]: < 25%
- Activity [18]: 26%
- Ki [19]: 17 nM
- Activity [20]: 100%
- Activity [21]: 25%
- IC50 [22]: 15 nM
- Activity [23]: 24%
- Activity [24]: 136%
- Activity [25]: < 25%
- Activity [26]: 97%
- Activity [27]: 21%
- Activity [28]: < 25%
- Activity [29]: 93%
- Activity [30]: 10%
- Activity [31]: 4%
- Activity [32]: 3%
- Activity [33]: < 25%
- Activity [34]: 15%
- Activity [35]: 25%
- Activity [36]: 36%
- Activity [37]: 75%
- Activity [38]: 84%
- Activity [39]: 5%
- Activity [40]: 19%
- Activity [41]: 21%
- Activity [42]: 0.6%
- Activity [43]: 2.5%
- Activity [44]: 25%
